Experimental data: patent publication US20230141603A1, “BENZODIAZEPINE DERIVATIVES AS GABA A GAMMA1 PAM” (Hoffmann-La Roche Inc., priority 2021, published 2023)

Molecular target: T1, h-GABAA α2β2γ1 (Homo sapiens, UniProt P47869+Q8N1C3)
T1 sequence (P47869 29-451): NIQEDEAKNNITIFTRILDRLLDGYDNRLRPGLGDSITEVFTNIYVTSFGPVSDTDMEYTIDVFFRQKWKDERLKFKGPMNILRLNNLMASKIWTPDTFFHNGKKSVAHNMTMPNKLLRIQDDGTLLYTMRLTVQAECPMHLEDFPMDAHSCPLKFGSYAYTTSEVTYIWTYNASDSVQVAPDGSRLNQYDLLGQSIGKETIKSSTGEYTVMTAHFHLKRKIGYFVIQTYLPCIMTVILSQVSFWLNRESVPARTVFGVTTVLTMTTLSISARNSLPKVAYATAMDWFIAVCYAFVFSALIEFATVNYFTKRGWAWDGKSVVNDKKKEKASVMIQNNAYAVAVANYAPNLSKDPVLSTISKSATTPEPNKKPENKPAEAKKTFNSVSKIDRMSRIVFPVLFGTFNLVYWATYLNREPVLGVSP
T1 sequence (P47870 25-512 partner limits assumed): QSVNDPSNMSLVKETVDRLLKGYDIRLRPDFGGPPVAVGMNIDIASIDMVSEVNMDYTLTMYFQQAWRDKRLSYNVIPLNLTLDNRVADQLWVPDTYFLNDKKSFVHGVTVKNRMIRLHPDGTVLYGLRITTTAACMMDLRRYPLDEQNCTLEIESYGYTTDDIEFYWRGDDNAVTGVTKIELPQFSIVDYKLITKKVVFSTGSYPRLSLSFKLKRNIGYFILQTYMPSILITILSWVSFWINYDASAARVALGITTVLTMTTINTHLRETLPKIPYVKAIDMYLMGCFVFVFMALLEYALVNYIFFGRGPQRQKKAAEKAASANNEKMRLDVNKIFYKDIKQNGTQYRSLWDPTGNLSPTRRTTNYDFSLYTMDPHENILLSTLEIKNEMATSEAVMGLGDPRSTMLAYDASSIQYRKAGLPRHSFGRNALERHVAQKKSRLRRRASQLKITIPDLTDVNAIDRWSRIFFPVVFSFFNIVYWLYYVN
T1 sequence (Q8N1C3 36-465): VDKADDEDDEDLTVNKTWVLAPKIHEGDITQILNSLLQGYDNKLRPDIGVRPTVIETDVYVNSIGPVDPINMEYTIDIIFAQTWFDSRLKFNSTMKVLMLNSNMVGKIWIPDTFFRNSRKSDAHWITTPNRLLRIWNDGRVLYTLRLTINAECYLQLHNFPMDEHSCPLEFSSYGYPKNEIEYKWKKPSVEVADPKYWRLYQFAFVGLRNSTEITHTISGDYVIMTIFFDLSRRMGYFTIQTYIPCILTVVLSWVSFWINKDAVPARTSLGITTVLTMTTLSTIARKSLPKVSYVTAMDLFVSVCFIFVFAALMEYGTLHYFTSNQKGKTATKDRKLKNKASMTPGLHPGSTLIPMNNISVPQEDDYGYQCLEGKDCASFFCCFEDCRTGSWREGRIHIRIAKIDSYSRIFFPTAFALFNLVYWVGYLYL
Test: Two-electrode voltage clamp electrophysiology in Xenopus oocytes, modulation of GABA EC20 current
Type: cell-based
Set-up: host or cells: Xenopus laevis oocytes, RNA micro-injection
Conditions: for Efficacy (GABA)% / Fold increase h-GABA-A α2β2γ1 oocyte @ 30-fold Ki: Table 2; for Efficacy (GABA)%: % modulation of GABA EC20 = 100*(Fold increase−1), compound at approx. 30-fold Ki; for Fold increase h-GABA-A α2β2γ1 oocyte @ 30-fold Ki: compound at approx. 30-fold its Ki α2β2γ1, GABA EC20, Xenopus oocytes
Procedure: Xenopus laevis oocytes at maturation stages V-VJ were used for the expression of cloned mRNA encoding GABAA receptor subunits. Oocytes ready for RNA micro-injection were bought from Ecocyte, Castrop-Rauxel, Germany and stored in modified Barth's medium (composition in mM: NaCl 88, KCl 1, NaHCO3 2.4, HEPES 10, MgSO4 0.82, CaNO3 0.33, CaCl2 0.33, pH=7.5) at 20° C. until the experiment.
Oocytes were plated in 96-well plates for microinjection using the Roboinject automated instrument (MultiChannelSystems, Reutlingen, Germany). Approximately 50 nL of an aqueous solution containing the RNA transcripts for the subunits of the desired GABAA receptor subtype was injected into each oocyte. […] Oocytes were kept in modified Barth's medium (composition in mM: NaCl 88, KCl 1, NaHCO3 […], HEPES 10, MgSO4 0.82, CaNO3 0.33, CaCl2 0.33, pH=7.5) at 20° C. until the experiment.
Electrophysiological experiments were performed using the Roboocyte instrument (MultiChannelSystems, Reutlingen, Germany) on days 3 to 5 after the micro-injection of mRNA. During the experiment the oocytes were constantly superfused by a solution containing (in mM) NaCl 90, KCl 1, HEPES 5, MgCl2 1, CaCl2 1 (pH 7.4). Oocytes were impaled by two glass microelectrodes (resistance: 0.5-0.8 MΩ) which were filled with a solution containing KCl 1M+K-acetate 1.5 M and voltage-clamped to −80 mV. The recordings were performed at room temperature using the Roboocyte two-electrode voltage clamp system (Multichannelsystem). After an initial equilibration period of 1.5 min GABA was added for 1.5 min at a concentration evoking approximately 20% of a maximal current response (EC20). After another rest interval of 2.5 min GABA was again added evoking a response of similar amplitude and shape. […] Current traces were recorded at a digitization rate of 10 Hz during and shortly before and after the GABA application.
Each compound and concentration was tested on at least 3 oocytes. Different oocytes were used for different compound concentrations.
For the analysis, the digitized current traces of the first and second GABA response were superimposed and, if necessary, rescaled to equal maximal amplitudes. The ratio between the two responses during the time interval of test compound application was calculated point by point. The extremum of the resulting “ratio trace” was taken as the efficacy (“Fold increase”) of the compound expressed as “% modulation of GABA EC20” (100*(Fold increase−1)).

Structure (SMILES)	Efficacy (GABA)%	Fold increase h-GABA-A α2β2γ1 oocyte @ 30-fold Ki	potentiation of the GABA-induced current (α2β2γ1 GABAA receptor subtype expressing oocytes, reference PAMs)
Fc1cccc(F)c1C1=NCc2nncn2-c2ccc(C(F)(F)F)c(Cl)c21 [Example 37, 7-chloro-6-(2,6-difluorophenyl)-8-(trifluoromethyl)-4H-[1,2,4]triazolo[4,3-a][1,4]benzodiazepine]	67%	1.67	–
Cc1nnc2n1-c1ccc(C(F)F)c(Cl)c1C(c1c(F)cccc1F)=NC2 [Example 25, 7-chloro-8-(difluoromethyl)-6-(2,6-difluorophenyl)-1-methyl-4H-[1,2,4]triazolo[4,3-a][1,4]benzodiazepine]	84%	1.84	–
Cc1nnc2n1-c1ccc(C(C)(F)F)c(Cl)c1C(c1c(F)cccc1F)=NC2 [Example 22, 7-chloro-8-(1,1-difluoroethyl)-6-(2,6-difluorophenyl)-1-methyl-4H-[1,2,4]triazolo[4,3-a][1,4]benzodiazepine]	86%	1.86	–
Cc1ncc2n1-c1ccc(Cl)cc1C(c1ccccc1F)=NC2 [Midazolam, reference compound]	–	–	~60%
Fc1cccnc1C1=NCc2nncn2-c2ccc(Cl)c(Cl)c21 [Example 60, 7,8-dichloro-6-(3-fluoro-2-pyridyl)-4H-[1,2,4]triazolo[4,3-a][1,4]benzodiazepine]	132%	2.32	–
O=c1[nH]nc2n1-c1ccc(Br)c(Cl)c1C(c1c(F)cccc1F)=NC2 [Example 13, 8-bromo-7-chloro-6-(2,6-difluorophenyl)-2,4-dihydro-[1,2,4]triazolo[4,3-a][1,4]benzodiazepin-1-one]	52%	1.52	–
Fc1ccccc1C1=NCc2nncn2-c2ccc(Br)c(Cl)c21 [Example 8, 8-bromo-7-chloro-6-(2-fluorophenyl)-4H-[1,2,4]triazolo[4,3-a][1,4]benzodiazepine]	58%	1.58	–
COc1ccc2c(c1Cl)C(c1c(F)cccc1F)=NCc1nnc(C3CC3)n1-2 [Example 79, 7-chloro-1-cyclopropyl-6-(2,6-difluorophenyl)-8-methoxy-4H-[1,2,4]triazolo[4,3-a][1,4]benzodiazepine]	79%	1.79	–
COc1nnc2n1-c1ccc(Cl)c(Cl)c1C(c1c(F)cccc1F)=NC2 [Example 90, 7,8-dichloro-6-(2,6-difluorophenyl)-1-methoxy-4H-[1,2,4]triazolo[4,3-a][1,4]benzodiazepine]	65%	1.65	–
Fc1cccc(F)c1C1=NCc2nncn2-c2ccc(C(F)F)c(Cl)c21 [Example 23, 7-chloro-8-(difluoromethyl)-6-(2,6-difluorophenyl)-4H-[1,2,4]triazolo[4,3-a][1,4]benzodiazepine]	61%	1.61	–
COc1ccc2c(c1Cl)C(c1c(F)cccc1F)=NCc1nnc(-c3ccncn3)n1-2 [Example 61, 7-chloro-6-(2,6-difluorophenyl)-8-methoxy-1-pyrimidin-4-yl-4H-[1,2,4]triazolo[4,3-a][1,4]benzodiazepine]	61%	1.61	–
COCCc1nnc2n1-c1ccc(Cl)c(Cl)c1C(c1c(F)cccc1F)=NC2 [Example 19, 7,8-dichloro-6-(2,6-difluorophenyl)-1-(2-methoxyethyl)-4H-[1,2,4]triazolo[4,3-a][1,4]benzodiazepine]	72%	1.72	–
Cc1nnc2n1-c1ccc(C(F)(F)F)c(Cl)c1C(c1c(F)cccc1F)=NC2 [Example 40, 7-chloro-6-(2,6-difluorophenyl)-1-methyl-8-(trifluoromethyl)-4H-[1,2,4]triazolo[4,3-a][1,4]benzodiazepine]	75%	1.75	–
Cc1nnc2n1-c1ccc(Cl)c(Cl)c1C(c1ccccc1F)=NC2 [Example 4, 7,8-dichloro-6-(2-fluorophenyl)-1-methyl-4H-[1,2,4]triazolo[4,3-a][1,4]benzodiazepine]	73%	1.73	–
Fc1ccccc1C1=NCc2nnc(C3CC3)n2-c2ccc(Br)c(Cl)c21 [Example 2, 8-bromo-7-chloro-1-cyclopropyl-6-(2-fluorophenyl)-4H-[1,2,4]triazolo[4,3-a][1,4]benzodiazepine]	84%	1.84	–
Fc1cccnc1C1=NCc2nnc(-c3cccnn3)n2-c2ccc(C(F)(F)F)c(Cl)c21 [Example 72, 7-chloro-6-(3-fluoro-2-pyridyl)-1-pyridazin-3-yl-8-(trifluoromethyl)-4H-[1,2,4]triazolo[4,3-a][1,4]benzodiazepine]	630%	7.30	–
Fc1cccc(F)c1C1=NCc2nncn2-c2ccc(Br)c(Cl)c21 [Example 7, 8-bromo-7-chloro-6-(2,6-difluorophenyl)-4H-[1,2,4]triazolo[4,3-a][1,4]benzodiazepine]	56%	1.56	–
Clc1cccnc1C1=NCc2nnc(-c3cccnn3)n2-c2ccc(Br)c(Cl)c21 [Example 47, 8-bromo-7-chloro-6-(3-chloro-2-pyridyl)-1-pyridazin-3-yl-4H-[1,2,4]triazolo[4,3-a][1,4]benzodiazepine]	314%	4.14	–
Cc1ccc2c(c1Cl)C(c1c(F)cccc1F)=NCc1nncn1-2 [Example 17, 7-chloro-6-(2,6-difluorophenyl)-8-methyl-4H-[1,2,4]triazolo[4,3-a][1,4]benzodiazepine]	70%	1.70	–
